Measurements from US9012365B2, “Compatibility agents for herbicidal formulations comprising 2,4-(Dichlorophenoxy) acetic acid salts” (priority 2006, dated 2015).

How the values were obtained:
Type in all cases: physicochemical
[1] = Solubility of tested chemical in DI water
Procedure: (§1) In example 1, the electrolyte tolerance of 6 chemicals with and without the presence of 2,4-D amine was evaluated in ammonium sulfate system.

[2] = Solubility of tested chemical in 40% AMS (ammonium sulfate)
Procedure: as §1

[3] = Electrolyte tolerance: 40% AMS added into 10 g 0.13% tested chemical in DI water; conditions: for Appearance, added 40% AMS wt into 10 g 0.13% tested chemical in DI water: at 0 g AMS added, or at all additions (All); for Solubility / compatibility in water or AMS solution (in words): without 2,4-D amine
Procedure: as §1

[4] = Appearance of 10 g solution of (2.5 wt % ai 2,4-D DMA + tested chemical) after adding 40% AMS; conditions: for 0 gram Appearance / Addition Weight of 40% AMS: System was clear after adding / Addition Weight of 40% AMS: System was cloud after adding: 0.13 wt % a.i. of tested chemical, 2.5 wt % ai 2,4-D DMA; for 0 gram Appearance: 0 gram 40% AMS; for Addition Weight of 40% AMS: System was clear after adding / Addition Weight of 40% AMS: System was cloud after adding: 10 g solution; for Appearance, added 40% AMS wt into 10 g (2.5% 2,4-D + 0.13% tested chemical in DI water): at 0 g AMS added, or at all additions (All); for Added 40% AMS wt into 10 g (2.5% 2,4-D + 0.13% tested chemical in DI water), hazy / Added 40% AMS wt into 10 g (2.5% 2,4-D + 0.13% tested chemical in DI water), still clear: Table of Example 1
Procedure: In this example, the appearance of a 10 g solution of (2.5 wt % ai 2,4-D DMA+tested chemical) was evaluated after adding 40% AMS

[5] = Crystal formation of 2,4-D in 1000 ppm hard water + AMS after post-adding surfactant; conditions: for Appearance of sample: 0.069 g surfactant added to 3% 2,4-DMA (50%) + 90% water (1000 ppm hardness) + 7% AMS (40%), room temperature
Excerpt: FIG. 3 is a photograph illustrating the effect of various concentrations of cocoamine-2EO (“Coco-2”) and/or tallow-10EO (“Tallow-10”) on crystal formation of 2,4-D. (A) 0% Coco-2/0% Tallow-10. (B) 100% Coco-2/0% Tallow-10. (C) 45% Coco-2/55% Tallow-10. (D) 50% Coco-2/50% Tallow-10. (E) 55% Coco-2/45% Tallow-10.(F) 60% Coco-2/40% Tallow-10. (G) 0% Coco-2/100% Tallow-10.
In FIG. 3, sample (0:0) was 3% 2,4-DMA (50%)+90% water (1000 ppm hardness)+7% AMS (40%) and it readily formed crystals at room temperature.
The first sample, (0:0), on the left had no surfactant and it had about 15% crystal at the bottom. The rest of the samples had 0.069 g surfactant post-added to the first sample. […] Sample (0:100) was a little hazy with ˜5% crystal at bottom.

Solubility of tested chemical in DI Water [1]	Solubility of testes chemical in 40% AMS [2]	0 gram Appearance [4]	Addition Weight of 40% AMS: System was clear after adding [4]	Addition Weight of 40% AMS: System was cloud after adding [4]	Appearance, added 40% AMS wt into 10 g (2.5% 2,4-D + 0.13% tested chemical in DI water) [4]	Added 40% AMS wt into 10 g (2.5% 2,4-D + 0.13% tested chemical in DI water), hazy [4]	Added 40% AMS wt into 10 g (2.5% 2,4-D + 0.13% tested chemical in DI water), still clear [4]	Appearance of sample [5]	Compatibility in 2,4-D amine and AMS solution (in words) [4]	Appearance of sample ([5]; listed as Sample (0:100))	Crystal at bottom ([5]; 0.069 g surfactant post-added to sample (0:0))	Substance	Appearance, added 40% AMS wt into 10 g 0.13% tested chemical in DI water [3]	Solubility / compatibility in water or AMS solution (in words) [3]	Added 40% AMS wt into 10 g 0.13% tested chemical in DI water, hazy ([3]; no 2,4-D)	Added 40% AMS wt into 10 g 0.13% tested chemical in DI water, still clear ([3]; no 2,4-D)	AMS electrolyte tolerated relative to 55EO castor oil ethoxylate ([4]; in 2.5% 2,4-D DMA solution)	Appearance of sample ([5]; listed as Sample (100:0))
<0.007%	<0.007%	Haze	Haze	0 grams	All hazy							Castor oil ethoxylate-10EO	All hazy	little compatibility				
>20%	<0.036%	Clear	1.726 grams	2.141 grams	clear	2.14 g	1.73 g					Castor oil ethoxylate-36EO	clear		3.74 hazy g	3.57 g	3 times	
<0.016%	<0.016%	Clear	2.096 grams	2.264 grams	clear	2.26 g	2.1 g	hazy product without crystals	very good compatibility			Cocoamine-2EO	All hazy	little compatibility				hazy sample with a little oily sediment at bottom
All clear	All clear	Clear	0.179 grams	0.359 grams	clear	0.36 g hazy	0.18 g		poor compatibility agent			Hexyl glycoside	All clear	excellent solubility in water and electrolyte tolerance				
		Clear	1.503 grams	1.717 grams				dissolved most crystals		a little hazy	~5%	Tallowamine-10EO						
